# From publication PMC8140105 (Scientific Reports, 2021)
# Assays:
# [1] = test system: BV-2 cells; test: qPCR of IL-6 mRNA; format: cell-based, murine; conditions: 10 µM, n = 6, Mann–Whitney U test
# Protocol: To confirm the observed ELISA results at mRNA level, a qPCR experiment was performed. After incubation of the BV-2 cells with PapRIV or controls, cells were lysed in RLT buffer (Qiagen, Hilden, Germany) supplemented with 1% β-mercaptoethanol. The lysate was stored at − 80 °C until RNA extraction. RNA was extracted using the RNeasy Mini Kit (Qiagen, Hilden, Germany). DNAse steps were included in the protocol to remove possible DNA contamination. RNA purity and concentration were assessed using spectrophotometry (NanoDrop), while RNA quality was evaluated using capillary electrophoresis (Fragment Analyzer). After extraction, the RNA was immediately converted to cDNA which was stored at − 20 °C until qPCR analysis. Ppia and Rer were chosen as suitable control genes based on the GeNorm and Normfinder algorithms[79],[80]. Used primers are given in Table 5. qPCR cycling was performed using a LightCycler 480 (Roche), with Cq values being calculated using the second derivative threshold method.
# [2] = test system: Caco-2 monolayer; test: Caco-2 assay (apparent permeability); format: in vitro ADME
# Protocol: Caco-2 (Sigma-Aldrich, Diegem, Belgium) cells were grown in DMEM supplemented with 10% FBS, 1% NEAA and 1% penicillin/streptomycin solution. A total of 3 × 10^5 cells per filter were seeded in a 12-well plate and left for differentiation during 21–29 days (medium change every other day). Monolayer formation was checked by measuring the TEER values which should be above 0.30 kΩ × cm^2 [72]. After washing with Hank’s balanced salt solution, 400 µL of a 1 µM peptide solution was added to the apical side of the filter. After 30, 60, 90 and 120 min, 100 µL of the acceptor compartment was taken for UPLC-MS/MS analysis (Supplementary method S2). Linear curve fitting was used to calculate the apparent permeability coefficient (Papp), as sink conditions were achieved.
# The reduction in acceptor concentration was also taken into account after every sampling. The cumulative amount in the acceptor compartment is defined as:2 Cumulativeamount=CrnVr+∑k=1n-1CrkVs with Crk = concentration at sample point k in acceptor compartment; Vr = volume in the receiver chamber; Vs = volume sampled; n = times sampled. […]
# Supplementary method S2: UPLC-MS parameters Caco-2 assay
# Aliquots of the acceptor compartment are analyzed using the following validated UPLC-
# Column Acquity UPLC BEH C18 (2.1 × 100 mm, 1.7 µm) protected with a suitable guard
# Sample temperature: 10°C.
# A: 93/2/5 (v/v) H2O + ACN + DMSO + 0.1% FA
# B: 2/93/5 (v/v) H2O + ACN + DMSO + 0.1% FA
# Table 1: Quantifier of PapRIV.
# Peptide Mother ion Daughter ion Collision energy MS
# Injection volume: 10.0 µL
# Table 2: Gradient program
# Time (min) Mobile phase A (%) Mobile phase B (%)
substance,measurement,setting,value
"SDLPFEH [PapRIV, heptapeptide (SDLPFEH) quorum sensing peptide originating from the Bacillus cereus group; synthetic, purchased from GL Biochem]",IL-6 mRNA expression,[1],increased
same,Papp at 4 °C,"[2]; Caco-2, 4 °C, compared with Papp at 37 °C, n = 6 (Supplementary Fig. S1)",comparable
same,Papp,"[2]; Caco-2, apical to basolateral, 1 µM peptide (400 µL) after washing with Hank's balanced salt solution, cells differentiated 21–29 days, TEER above 0.30 kΩ × cm^2, acceptor sampled 30, 60, 90, 120 min, 37 °C, UPLC-MS/MS, linear fit, n = 6",1.37 ± 0.21 × 10^–9 cm/s
same,Papp in the opposite basolateral-apical direction,"[2]; Caco-2, basolateral to apical, compared with apical-basolateral Papp, n = 6 (Supplementary Fig. S1)",comparable
same,mass balance,"[2]; Caco-2 assay, 1 µM, 120 min",< 2%
